For orientation: IC50 means the point on the concentration scale where inhibition reaches its midpoint.

In patent US9580449B2, “Compositions and methods for the production of pyrimidine and pyridine compounds with BTK inhibitory activity” (Merck Patent GmbH, priority 2011, dated 2017) one finds IC50 data, which are given here for 13 molecules.

Molecules are shown by their SMILES.

One test deals with full-length human BTK (Homo sapiens (Human), UniProt Q06187). The test is described as follows: BTK IC50 enzyme assay (microfluidic off-chip mobility shift kinase assay). Particulars: incubated for 90 min. at 27 C; read-out: Time Dependent BTK Enzyme Assay IC50. The class given is biochemical. The essentials: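 Read-out separates phosphorylated peptide product from substrate by charge/mass in a mobility shift format with full-length human BTK.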
Sequence of full-length human BTK (Q06187 whole entry): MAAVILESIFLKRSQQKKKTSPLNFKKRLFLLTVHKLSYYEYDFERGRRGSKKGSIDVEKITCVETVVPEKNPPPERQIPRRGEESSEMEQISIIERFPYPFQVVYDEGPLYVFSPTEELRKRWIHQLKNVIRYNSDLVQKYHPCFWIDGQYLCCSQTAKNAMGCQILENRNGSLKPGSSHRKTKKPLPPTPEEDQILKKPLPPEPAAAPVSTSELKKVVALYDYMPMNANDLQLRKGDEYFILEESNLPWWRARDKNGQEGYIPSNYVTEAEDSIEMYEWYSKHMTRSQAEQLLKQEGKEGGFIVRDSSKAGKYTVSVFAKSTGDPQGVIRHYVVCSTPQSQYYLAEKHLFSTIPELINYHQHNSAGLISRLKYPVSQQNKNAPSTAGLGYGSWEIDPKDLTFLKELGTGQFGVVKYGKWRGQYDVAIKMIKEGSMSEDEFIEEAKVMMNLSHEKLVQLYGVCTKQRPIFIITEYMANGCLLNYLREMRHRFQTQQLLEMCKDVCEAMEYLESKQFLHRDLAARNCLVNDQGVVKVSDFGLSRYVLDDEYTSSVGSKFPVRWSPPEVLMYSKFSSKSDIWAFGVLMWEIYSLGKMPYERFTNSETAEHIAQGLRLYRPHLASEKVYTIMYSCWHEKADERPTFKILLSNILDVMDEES

A further test relates to PBMC. The test is described as follows: Time Dependent PBMC IC50 assay. In kind it is cell-based. How it is done:
Compounds described by embodiments of the present invention were assayed using a time dependent PMBC assay.

With `C=CC(=O)N[C@H]1C[C@H](Nc2ncnc(N)c2-c2ccc(Oc3ccccc3)cc2)C1` [A117, N-(1,3-trans-3-((6-amino-5-(4-phenoxyphenyl)pyrimidin-4-yl)amino)cyclobutyl)acrylamide], the 50% inhibitory concentration (IC50) is less than 100 nM on full-length human BTK and less than 1000 nM in the test on PBMC.

`C=CC(=O)N[C@H]1C[C@@H](Nc2ncnc(N)c2-c2ccc(Oc3ccccc3)cc2)C1` [A118]: the IC50 on full-length human BTK is less than 100 nM; with PBMC, less than 1000 nM.

On to `C=CC(=O)N1CCC(CNc2ncnc(N)c2-c2ccc(Oc3ccccc3)cc2)(OC)CC1` [A121, 1-(4-(((6-amino-5-(4-phenoxyphenyl)pyrimidin-4-yl)amino)methyl)-4-methoxypiperidin-1-yl)prop-2-en-1-one], for which the values for the IC50 on full-length human BTK and with PBMC were less than 100 nM and less than 1000 nM, respectively.

On to `CN(C)C/C=C/C(=O)N1CC[C@@H](CNc2ncnc(N)c2-c2ccc(Oc3ccccc3)cc2)[C@H](O)C1` [A126, (E)-1-((3S,4S)-4-(((6-amino-5-(4-phenoxyphenyl)pyrimidin-4-yl)amino)methyl)-3-hydroxypiperidin-1-yl)-4-(dimethylamino)but-2-en-1-one], for which the IC50 on full-length human BTK is less than 100 nM; in the test with PBMC it was less than 1000 nM.

Turning to `CN(C)C/C=C/C(=O)N1CC2(CC(Nc3ncnc(N)c3-c3ccc(Oc4ccccc4)cc3)C2)C1` [A127, (E)-1-(6-((6-amino-5-(4-phenoxyphenyl)pyrimidin-4-yl)amino)-2-azaspiro[3.3]heptan-2-yl)-4-(dimethylamino)but-2-en-1-one], the IC50 at full-length human BTK was less than 100 nM; in the test on PBMC it was less than 1000 nM.

As to `CN(C)C/C=C/C(=O)Nc1cccc(Oc2ccnc(N)c2-c2ccc(Oc3ccccc3)cc2)c1` [A151, (E)-N-(3-((2-amino-3-(4-phenoxyphenyl)pyridin-4-yl)oxy)phenyl)-4-(dimethylamino)but-2-enamide], the values for the half-inhibitory concentration (IC50) on full-length human BTK and in the test on PBMC were less than 100 nM and more than 1000 nM, respectively.

In the case of `C=CC(=O)N1CCC(CNc2ncnc(N)c2-c2ccc(Oc3ccccc3)nc2)CC1` [A168, 1-(4-(((6-amino-5-(6-phenoxypyridin-3-yl)pyrimidin-4-yl)amino)methyl)piperidin-1-yl)prop-2-en-1-one], the IC50 on full-length human BTK and in the test with PBMC was more than 1000 nM in each case.

As to `C=CC(=O)Nc1cccc(Oc2ncnc(N)c2-c2ccc(Oc3ccccc3)cc2)c1` [A242, N-(3-((6-amino-5-(4-phenoxyphenyl)pyrimidin-4-yl)oxy)phenyl)acrylamide], the concentration for half-maximal inhibition (IC50) was less than 100 nM at full-length human BTK and less than 1000 nM with PBMC.

In the case of `C=CC(=O)Nc1cccc(-c2c(N)ncnc2Oc2ccc(Oc3ccccc3)cc2)c1` [A245, N-(3-(4-amino-6-(4-phenoxyphenoxy)pyrimidin-5-yl)phenyl)acrylamide], the 50% inhibitory concentration (IC50) at full-length human BTK is less than 100 nM; in the test with PBMC, less than 1000 nM.

Regarding `CN(C)C/C=C/C(=O)Nc1cccc(Oc2ncnc(N)c2-c2ccc(Oc3ccccc3)cc2)c1` [A252, (E)-N-(3-((6-amino-5-(4-phenoxyphenyl)pyrimidin-4-yl)oxy)phenyl)-4-(dimethylamino)but-2-enamide], the IC50 is less than 100 nM on full-length human BTK and less than 1000 nM in the test on PBMC.

On to `C=CC(=O)Nc1cccc(Oc2ncnc(N)c2-c2ccc(C(=O)Nc3ccccc3)cc2)c1` [A258, 4-(4-(3-acrylamidophenoxy)-6-aminopyrimidin-5-yl)-N-phenylbenzamide], for which the IC50 was less than 100 nM on full-length human BTK and more than 1000 nM with PBMC.

For `C=CC(=O)Nc1cccc(-c2cnc(N)nc2Oc2ccc(Oc3ccccc3)cc2)c1` [A306, N-(3-(2-amino-4-(4-phenoxyphenoxy)pyrimidin-5-yl)phenyl)acrylamide], the figures for the half-inhibitory concentration (IC50) at full-length human BTK and in the test on PBMC were less than 100 nM and less than 1000 nM, respectively.

In the case of `CC#CC(=O)N1CCC(CNc2ncnc(N)c2-c2ccc(Oc3ccccc3)cc2)CC1` [A336, 1-(4-(((6-amino-5-(4-phenoxyphenyl)pyrimidin-4-yl)amino)methyl)piperidin-1-yl)but-2-yn-1-one], the IC50 at full-length human BTK is less than 100 nM; in the test on PBMC it was less than 1000 nM.
